Test results as given in the NIST ThermoML archive (doi:10.1021/je700132w).
± gives the expanded uncertainty stated by the source.

Settings: Liquid; for Critical pressure: Direct measurement; for Critical density: Rectilinear diameter; for Critical temperature: Visual observation in an unstirred cell

Row | Critical pressure | Critical density | Critical temperature | Compound
1 | 4000 ± 60 kPa | 233 ± 7 kg/m3 | 421.2 ± 0.6 K | C=CCC [1-butene]
2 | 3620 ± 60 kPa | 220 ± 6 kg/m3 | 409.9 ± 0.6 K | CC(C)C [2-methylpropane]
3 | 7380 ± 60 kPa | 473 ± 8 kg/m3 | 304.8 ± 0.6 K | O=C=O [carbon dioxide]

Row | Compound | Critical pressure | Critical density | Critical temperature
4 | CC(C)CC(C)(C)C [2,2,4-trimethylpentane] | 2570 ± 60 kPa | 251 ± 7 kg/m3 | 544.1 ± 0.6 K
